According to patent publication US8207206B2, “(S,R)-3-phenyl-4,5 dihydro-5-isoxazole acetic acid-nitric oxide and use thereof as anti-cancer and antiviral agent” (OncoNOx APS, priority 2007, dated 2012):

How the values were obtained:
B16 cells = assay: LDH release assay (cell death); assay type: cell-based, mouse; settings: B16, dose-dependent (24 h) and time-dependent (25 μg/ml), significant after 18 h
Description: As a marker of necrotic cell death, the release of intracellular enzyme LDH, which mediates the conversion 2,4-dinitrophenylhydrazine into visible hydrazone precipitate in the presence of pyruvate, was measured. […] The percentage of dead cells was determined using the following formula: [(E−C)/(T−C)]×100, wherein E is the experimental absorbance of treated cultures measured at 492 nm, C is the absorbance of supernatants of control untreated cells, and T is the absorbance corresponding to the maximal (100%) LDH release of Triton-lysed cells. Cell cycle analysis and apoptosis detection were carried out exactly as described in the literature (Mijatovic CMLS 2005). Acidic vesicular organelles, which characterise autophagy, are stained by vital dye acridin orange. The intensity of red fluorescence is proportional to the acidity and volume of the organelles, while the cytoplasm and nucleolus emits bright green and dim red (Kanzawa 2004). For the detection of autophagy the cells were cultivated in 6-well plates as previously described, detached and stained with 1 μg/ml acridin orange for 15 min at RT. At the end of the incubation period the cells were washed and finally resuspended in PBS. Green (510-530 nm) and red (>650 nm) fluorescence emission from 10^4 cells illuminated with blue (488 nm) excitation light was measured with a FACS Calibur and analyzed using CellQuest software.

B16 melanoma = B16 melanoma in C57BL/6 mice, treatment with GIT27-NO; assay type: in vivo
Description: Primary tumors were induced by subcutaneous (s.c) injection of 2×10^5 B16 melanoma cells in the dorsal right lumbosacral region of syngeneic C57BL/6 mice. […] GIT27-NO was prepared immediately before treatment and was applied i.p. at a dose of 0.5 mg/mouse for 14 consecutive days. The animals were observed until day 30, then sacrificed and tumor growth was determined by three-dimensional measurements of individual tumors from each mouse. Tumor volume was calculated using the following formula: [0.52×a×b^2], where a is the longest and b is the shortest diameter (Smagur et al).

C6 cells = assay: Cell cycle analysis and apoptosis detection (PI staining, flow cytometry); assay type: cell-based, rat; settings: C6, 25 μg/ml, 24 h
Description: As a marker of necrotic cell death, the release of intracellular enzyme LDH, which mediates the conversion 2,4-dinitrophenylhydrazine into visible hydrazone precipitate in the presence of pyruvate, was measured. The cells were seeded in flat-bottom 96-well plates as indicated above and the assay was performed after 24 h incubation, as previously described (Decker et al). The percentage of dead cells was determined using the following formula: [(E−C)/(T−C)]×100, wherein E is the experimental absorbance of treated cultures measured at 492 nm, C is the absorbance of supernatants of control untreated cells, and T is the absorbance corresponding to the maximal (100%) LDH release of Triton-lysed cells. Cell cycle analysis and apoptosis detection were carried out exactly as described in the literature (Mijatovic CMLS 2005). Acidic vesicular organelles, which characterise autophagy, are stained by vital dye acridin orange. The intensity of red fluorescence is proportional to the acidity and volume of the organelles, while the cytoplasm and nucleolus emits bright green and dim red (Kanzawa 2004). […] Green (510-530 nm) and red (>650 nm) fluorescence emission from 10^4 cells illuminated with blue (488 nm) excitation light was measured with a FACS Calibur and analyzed using CellQuest software.

## N#Cc1c(COC(=O)CC2CC(c3ccccc3)=NO2)no[n+]1[O-] (racemic) [GIT27-NO, (S,R)-3-phenyl-4,5 dihydro-5-isoxazole acetic acid-nitric oxide]
B16 cells
  LDH release: induced LDH release
B16 melanoma; B16 melanoma, 0.5 mg/mouse/day from day 10
  tumor growth compared to untreated control animals: significant reduction of tumor growth
B16 melanoma; B16 melanoma, 30 days follow-up, 2 animals died in control group
  survival during follow-up period: survived 30 days
B16 melanoma; s.c. B16 melanoma, i.p. 0.5 mg/mouse/day from day 10, measured 30 days after implantation, control 2.97 ± 6.4, p < 0.05
  Mean tumor volume: 0.82 ± 1.2
C6 cells
  cell cycle effect: cell cycle arrest in G0/G1 phase
  percentage of cells in subG compartment (hypodiploid cells): < 10%
